# System: CHO ml cells
# Assay: Calcium flux assay
# Format: cell-based
# Conditions: CHO ml cells in 384-well microplate loaded with fluorescent calcium ion indicator; carbachol 10 nM, 100 nM, 10 μM; single selected well, frames about two seconds apart
# Protocol: This example, illustrated in FIGS. 6 and 7, describes calcium flux assays conducted using an apparatus constructed in accordance with aspects of the invention.
# Cultured CHO ml cells were grown overnight in a 384-well microplate, then loaded with a cell-permeant form of a fluorescent calcium ion indicator for 1 hour. […] The manual addition of carbachol (a calcium flux stimulant) in 10 nM, 100 nM, and 10 μM concentrations was used to mimic small, medium, and large sustained responses.
# The figure records the average light intensity in a single selected well as a function of frame number (each frame taken approximately two seconds apart), where the selected well was one to which carbachol was added.
# Here, no sustained increase in signal strength was observed, although there were small fluctuations due to shot-to-shot variations in illumination laser intensity.
structure (smiles),measurement,value
C[N+](C)(C)CCOC(N)=O [carbachol],fluorescence signal (calcium flux response) after addition of carbachol,"rapid increase in the fluorescence signal over the first few frames, with a slow decay"

# — patent publication US6930314B2, “Light detection device” (Molecular Devices Corporation, priority 2000, dated 2005)
